According to patent US10278931B2, “Composition for treatment of inflammatory bowel disease and atopic dermatitis” (INNOPHARMASCREEN INC., priority 2015, dated 2019):

Legend:
[1] = system: balb/c mice with DNCB-induced atopic dermatitis; assay: DNCB-induced atopic dermatitis model; type: in vivo; settings: for epidermal thickness: DNCB group 87.1±13.0, normal 24.5±10.3; for number of mast cells in skin tissue: applied 3 weeks; for blood IgE level: DNCB group 790.0±151.8
Excerpt: (5) Reverse transcription-polymerase chain reaction (RT-PCR) quantitative real time PCR: Total RNA was isolated from cells and tissues, and cDNA was synthesized using a reverse transcriptase and was then reacted with cytokine primers to be analyzed, followed by PCR and real-time PCR. The RT-PCR products were subjected to electrophoresis using 1.5% agarose gel for analysis.
A. Experimental animal: 5-week-old male BALB/c mice obtained from. Daehan Biolink (Eumseong, Chungbuk) were adapted for 2 weeks in a clean animal breeding room (small animal room #2-302) at Hoseo University Safety Evaluation Center, set under environmental conditions: temperature of 22±3° C.; relative humidity of 50±20%; ventilation frequency of 10 to 15 times/hour, illumination for 12 hours; and illuminance of 150 Lux to 300 Lux, and then used in an experiment.
4 experimental animals were accommodated in each of polycarbonate cages (270×500×200 mm, KYERYONG SCIENCE). Feed (5053-Picolab Rodent 20, PMI Nutrition International) and drinking water (ultraviolet sterilized filtered water) were allowed to ingest freely. All procedures of the experiment were conducted after approved by the Ethics Committee of the Hoseo University Safety Evaluation Center (HTRC-15-19).
B. Dermatitis induction: Hairs on the back of each mouse were removed and maintained for 24 hours, and then 150 μl of a 1% 2,4-dinitrochlorobenzene(DNCB) solution (acetone: olive oil=3:1) was applied on the hair-removed site once a week for 3 weeks. After week 3, the DNCB solution was applied on the site twice a week for 3 weeks to induce atopic dermatitis.
C. Treatment: Mice were divided into 6 groups, and 0.5% DMSO was applied on animals as a control and 200 μl of each of 0.01 μM, 0.1 μM, and 1 μM test material was applied on animals as experimental groups for 3 weeks. 50 μl of 0.1% dexamethasone dissolved in a crude alcohol was applied on animals as a positive control at intervals of 2 days.
D. Biopsy: After application of the test material was completed, the dorsal skin of each experimental animal was incised under heart anesthesia, some of them were rapidly frozen using liquid nitrogen and stored at −70° C. before analysis, and the remainder was fixed with 10% neutral buffered formalin for 24 hours. The fixed tissues were prepared into slides through general tissue processing, and then subjected to hematoxylin & eosin (H&E) staining to measure the thickness of the epidermal layer. In addition, toluidine blue staining was performed to observe a quantitative change of mast cells. While the stained tissues were observed by an optical microscope, the thickness of the epidermal layer and the number of mast cells were obtained using an image analyzer (Olympus DP-21).
E. IgE level measurement: IgE concentration in blood was measured by (SHIBAYAGI, Japan) using serum collected when autopsy was performed. 50 μL of an IgE standard solution and the sample were placed in antibody-attached 96 wells and allowed to react for 2 hours, and then 50 μL of a biotin-conjugated anti-IgE antibody solution was added to each well and allowed to react for 2 hours. Thereafter, the resulting sample was reacted with a HRP-avidin solution for 1 hour and a chromogenic substrate (TBM) reagent for 20 minutes, and the reaction was stopped using a reaction stopper. Absorbance of the sample was measured at 450 nm using ELISA (Molecular devices Emax).

[2] = system: IL-6, IL-22, IL-33 cytokine proteins; assay: Cytokine & chemokine antibody microarray protein chip of DNCB skin tissue; type: in vivo, balb/c mice; settings: 1% DNCB and 1 μM vs DNCB only; within threshold 1±0.1
Excerpt: A. Preparation of tissue samples: The mouse skin tissue was frozen in liquid nitrogen and then finely ground in a mortar. Liquid nitrogen was intermittently added to prevent the tissue from being thawed. The finely ground skin tissue was placed in lysis M buffer to prepare a tissue sample lysate.
B. Fluorescent labeling of tissue lysates: Proteins were extracted from each of the tissue lysate treated with the sample for a certain period of time and an untreated tissue lysate (Lysis M extraction solution, Roche) and labeled with a fluorescent material (Cy3 or Cy5) (GE Healthcare). First, the amount of protein from each tissue lysate was adjusted to be at least 1 mg, and then coupling buffer (0.1M sodium carbonate buffer, pH 9.3) was added and mixed well. Cy3 and Cy5 dyes were added to each tissue lysate to which the coupling buffer had been added and mixed well for labeling at 4° C. for 16 hours. A control treated only with DNCB was labeled with Cy3 and Cy5, and the experimental groups treated with the sample were also labeled with Cy3 and Cy5. After labeling with the fluorescent dyes, free dyes were removed using a Post-reactive Spin column (Sigma).
C. Fabrication of antibody microarrays: ProteoChip™ (Proteogen, Inc., Seoul, Korea) was used as a protein chip, and antibody microarrays were fabricated by spotting antibodies against 26 proteins in cells on a substrate immobilized with 200 μg/ml of protein A on the ProteoChip™. First, the antibodies were diluted to 100 μg/ml with phosphate buffer containing 30% glycerol and the antibody arrays were fixed overnight at 4° C. […]
D. Hybridization of antibody arrays: Tissue lysates labeled with fluorescent materials were quantified (Bradford method), and 30 μg of each fluorescently labeled samples were mixed in 10 ml of a reaction solution. […] Each slide was analyzed using a fluorescent microarray scanner. […] The ratio of Cy5 to Cy3 in each spot was calculated using a software (Genepix 6.0). The INR values were calculated by sample-Cy5/control-Cy3×sample-Cy3/control-Cy5. […]

[3] = DNCB-applied balb/c mice skin tissue, RT-PCR
[4] = DNCB-applied balb/c mice, concentration of 0.011 μM (so in the source)

Cl.N=C(N)NC(=N)Nc1ccc(Cl)cc1 [IPS-07001]
visual changes of skin symptoms ([1]; 0.01 μM, topical, 3 weeks): No significant visual changes | epidermal thickness ([1]; 0.01 μM): 70.8±4.3 μm | number of mast cells in skin tissue ([1]; 0.1 μM, p<0.01): 25.8±3.5 | visual changes of skin symptoms ([1]; 0.1 μM, topical, 3 weeks): No significant visual changes | epidermal thickness ([1]; 0.1 μM): 74.4±7.1 μm | blood IgE level ([1]; 0.1 μM, p<0.05): 632.6±138.8 | number of mast cells in skin tissue ([1]; 1 μM, p<0.01): 23.8±5.1 | erythema, excoriation, and lichenification (visual observation) ([1]; 1 μM, topical, 3 weeks, compared to DNCB group): reduced | epidermal thickness ([1]; 1 μM): 60.0±8.2 μm | blood IgE level ([1]; 1 μM, p<0.01): 537.9±132.9 | IL-6 mRNA expression in atopic skin lesions [1, 3]: regulated | TARC mRNA expression in atopic skin lesions [1, 3]: regulated | TNF-a mRNA expression in atopic skin lesions [1, 3]: regulated | IL-4 level in dorsal skin [1, 4]: significantly regulated | serum IL-4 level [1, 4]: significantly regulated | serum IgE level [1, 4]: significantly regulated | serum histamine level [1, 4]: significantly regulated | IL-6 protein expression (antibody chip, INR) [2]: decrease | IL-22 protein expression (antibody chip, INR) [2]: decrease | IL-33 protein expression (antibody chip, INR) [2]: decrease
